We go through 1 compound from paper PMC6646960 (ACS Chemical Biology, 2019).

The assay deals with T1, DC-SIGN (Homo sapiens, UniProt Q9NNX6).
T1 sequence (Q9NNX6 254-404): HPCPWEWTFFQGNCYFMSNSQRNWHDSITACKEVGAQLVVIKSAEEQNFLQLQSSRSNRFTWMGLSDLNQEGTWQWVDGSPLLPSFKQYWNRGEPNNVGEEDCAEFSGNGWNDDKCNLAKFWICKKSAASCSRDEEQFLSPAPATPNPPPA
The assay can be described thus: 1H-15N HSQC NMR titration. The assay is classed as binding.

Compound `C[C@@H]1OC(O)[C@@H](O)[C@H](O)[C@@H]1O` (stereo partly shown) [compound 4, Fuc] had a dissociation constant Kd of 4.1 ± 0.7 mM.

By Kd is commonly meant a measure of binding affinity in units of concentration.
